# Laboratory results reported in ChEMBL document CHEMBL3739426, “Synthesis and biological evaluation of novel 2-isoxazoline fused cyclopentane derivatives as potential antimicrobial and anticancer agents” (Medchemcomm, 2015).
# Activity calls are given as the source filed them. No cut-off for these calls is given here.
# Legend:
# [1] = system: MCF7; experiment: Induction of apoptosis in human MCF7 cells assessed as formation of extremely condensed chromatin at 5 ug/ml after 48 hrs using acridine orange and ethidium bromide staining by light microscopic analysis; format: functional, cell-based
# [2] = system: MCF7; experiment: Induction of apoptosis in human MCF7 cells assessed as formation of cell membrane blebbing at 10 ug/ml after 48 hrs using acridine orange and ethidium bromide staining by light microscopic analysis; format: functional, cell-based
# [3] = system: MCF7; experiment: Induction of apoptosis in human MCF7 cells assessed as formation of nuclear fragmentation at 10 ug/ml after 48 hrs using acridine orange and ethidium bromide staining by light microscopic analysis; format: functional, cell-based
# [4] = system: MCF7; experiment: Induction of apoptosis in human MCF7 cells assessed as formation of chromatin condensation at 10 ug/ml after 48 hrs using acridine orange and ethidium bromide staining by light microscopic analysis; format: functional, cell-based
# [5] = system: MCF7; experiment: Induction of apoptosis in human MCF7 cells assessed dead cells at 5 ug/ml after 48 hrs using annexin V/propidium iodide staining by muse cell analyzer analysis (reference value: 1.04%); format: functional
# [6] = system: MCF7; experiment: Induction of apoptosis in human MCF7 cells assessed live cells at 5 ug/ml after 48 hrs using annexin V/propidium iodide staining by muse cell analyzer analysis (reference value: 81.07%); format: functional
# [7] = system: MCF7; experiment: Induction of apoptosis in human MCF7 cells assessed late apoptotic cells at 5 ug/ml after 48 hrs using annexin V/propidium iodide staining by muse cell analyzer analysis (reference value: 11.89%); format: functional
# [8] = system: MCF7; experiment: Induction of apoptosis in human MCF7 cells assessed early apoptotic cells at 5 ug/ml after 48 hrs using annexin V/propidium iodide staining by muse cell analyzer analysis (reference value: 6%); format: functional
# [9] = system: MCF7; experiment: Induction of apoptosis in human MCF7 cells assessed dead cells at 10 ug/ml after 48 hrs using annexin V/propidium iodide staining by muse cell analyzer analysis (reference value: 1.04%); format: functional
# [10] = system: MCF7; experiment: Induction of apoptosis in human MCF7 cells assessed live cells at 10 ug/ml after 48 hrs using annexin V/propidium iodide staining by muse cell analyzer analysis (reference value: 81.07%); format: functional
# [11] = system: MCF7; experiment: Induction of apoptosis in human MCF7 cells assessed late apoptotic cells at 10 ug/ml after 48 hrs using annexin V/propidium iodide staining by muse cell analyzer analysis (reference value: 11.89%); format: functional
# [12] = system: MCF7; experiment: Induction of apoptosis in human MCF7 cells assessed early apoptotic cells at 10 ug/ml after 48 hrs using annexin V/propidium iodide staining by muse cell analyzer analysis (reference value: 6%); format: functional
# [13] = system: MCF7; experiment: Cell cycle arrest in human MCF7 cells assessed as accumulation at G0/G1 phase at 5 ug/ml after 48 hrs using propidium iodide staining by flow cytometry analysis (reference value: 47.3%); format: functional
# [14] = system: MCF7; experiment: Cell cycle arrest in human MCF7 cells assessed as accumulation at S phase at 5 ug/ml after 48 hrs using propidium iodide staining by flow cytometry analysis (reference value: 12.7%); format: functional
# [15] = system: MCF7; experiment: Cell cycle arrest in human MCF7 cells assessed as accumulation at G2/M phase at 5 ug/ml after 48 hrs using propidium iodide staining by flow cytometry analysis (reference value: 25.8%); format: functional
# [16] = system: MCF7; experiment: Cell cycle arrest in human MCF7 cells assessed as accumulation at G0/G1 phase at 10 ug/ml after 48 hrs using propidium iodide staining by flow cytometry analysis (reference value: 47.3%); format: functional
# [17] = system: MCF7; experiment: Cell cycle arrest in human MCF7 cells assessed as accumulation at S phase at 10 ug/ml after 48 hrs using propidium iodide staining by flow cytometry analysis (reference value: 12.7%); format: functional
# [18] = system: MCF7; experiment: Cell cycle arrest in human MCF7 cells assessed as accumulation at G2/M phase at 10 ug/ml after 48 hrs using propidium iodide staining by flow cytometry analysis (reference value: 25.8%); format: functional
# [19] = system: MCF7; experiment: Induction of apoptosis in human MCF7 cells assessed as decrease of mitochondrial membrane potential after 12 hrs using JC-1 dye by fluorescence microscopic analysis; format: functional, cell-based
# [20] = system: Bacillus subtilis; experiment: Antimicrobial activity against Bacillus subtilis by cup plate diffusion method; format: functional
# [21] = system: Priestia megaterium; experiment: Antimicrobial activity against Bacillus megaterium by cup plate diffusion method; format: functional
# [22] = system: Escherichia coli; experiment: Antimicrobial activity against Escherichia coli by cup plate diffusion method; format: functional
# [23] = system: Pseudomonas sp.; experiment: Antimicrobial activity against Pseudomonas sp. by cup plate diffusion method; format: functional
# [24] = system: Candida albicans; experiment: Antimicrobial activity against Candida albicans by cup plate diffusion method; format: functional
# [25] = system: HT-29; experiment: Cytotoxicity against human HT-29 cells after 48 hrs by MTT assay; format: functional, cell-based; conditions: HT-29, 48 h
# [26] = system: HeLa; experiment: Cytotoxicity against human HeLa cells after 48 hrs by MTT assay; format: functional, cell-based
# [27] = system: MCF7; experiment: Cytotoxicity against human MCF7 cells after 48 hrs by MTT assay; format: functional, cell-based; conditions: MCF7, 48 h
# [28] = system: A549; experiment: Cytotoxicity against human A549 cells after 48 hrs by MTT assay; format: functional, cell-based; conditions: A549, 48 h
# [29] = Cytotoxicity against human PC3 cells after 48 hrs by MTT assay; format: functional, cell-based; conditions: PC-3, 48 h
# [30] = system: MCF7; experiment: Induction of apoptosis in human MCF7 cells assessed as formation of intact nuclei at 5 ug/ml after 48 hrs using acridine orange and ethidium bromide staining by light microscopic analysis; format: functional, cell-based
smiles,measurement,setting,value
OC[C@@H]1C[C@H](CO)[C@@H]2C(c3ccc4ccccc4c3)=NO[C@H]12,Activity,[1],Active
same,Activity,[2],Active
same,Activity,[3],Active
same,Activity,[4],Active
same,Activity,[5],4.06%
same,Activity,[6],55.08%
same,Activity,[7],15.91%
same,Activity,[8],24.94%
same,Activity,[9],0.61%
same,Activity,[10],32.21%
same,Activity,[11],18.85%
same,Activity,[12],48.32%
same,Activity,[13],44.7%
same,Activity,[14],14.9%
same,Activity,[15],24.8%
same,Activity,[16],35.7%
same,Activity,[17],27.5%
same,Activity,[18],22.6%
same,Activity,[19],Dose-dependent effect
same,MIC,[20],26 µg/mL
same,MIC,[21],26 µg/mL
same,MIC,[22],> 100 µg/mL
same,MIC,[23],> 100 µg/mL
same,MIC,[24],> 100 µg/mL
same,IC50,[25],14.3 µg/mL
same,IC50,[26],24.5 µg/mL
same,IC50,[27],11.5 µg/mL
same,IC50,[28],> 50 µg/mL
same,IC50,[29],48.4 µg/mL
same,Activity,[30],Active
